# Assay results: patent publication US6844020B2, “Solutions of carotenoids for use in foods and personal care products” (Kemin Foods, L.C., priority 2002, dated 2005)
# Several values for one entry are separate records, joined by “and”; a condition that tells them apart may be missing. Identical values can stand only once. Like-named read-outs stand apart in the source and are kept apart here.
# Legend:
# [1] = Stability of lutein dry cake in essential oils; assay type: physicochemical; settings: 20 weeks; for trans lutein dropped: accelerated conditions (40° C.); for lutein lost: ambient (25° C.)
# Experimental: Stability experiments were performed with the best group of essential oils and lutein dry cake. Fresh samples were made, placed in amber vials, blanked with argon and placed onto stability at 25° C. and 40° C. after taking initial % carotenoids and % lutein. Bay, cornmint, peppermint, spearmint, tea tree, pure thyme, red thyme, and white thyme oils were all tested up to 20 weeks. FIGS. 1 and 2 show total carotenoids at ambient and FIGS. 3 and 4 show all trans lutein at ambient conditions. Tea tree oil and bay oil had the best stability of total carotenoids and all trans lutein at ambient conditions. Tea tree lost 32% lutein and pure thyme lost 22% lutein after 20 weeks. It should be noted that the oils were not tested at maximum lutein solubility conditions for stability testing.
# FIGS. 5 and 6 show the same set of experiments for total carotenoids at accelerated conditions. FIGS. 7 and 8 show all trans lutein at accelerated conditions. Under accelerated conditions, bay oil, red thyme and pure thyme fared the best for total carotenoids and lutein. Bay oil trans lutein dropped 54% and pure/red thyme oil trans lutein dropped approximately 47% at 20 weeks. It seems the biggest drop occurs during the first 2-week time point then it levels off. All other oils did much worse.
# [2] = cited from earlier work
# [3] = consumption of lutein and zeaxanthin; Seddon et al., 1994; cited from earlier work
# [4] = Lutein solubility in essential oils; assay type: physicochemical
# Experimental: Lutein dry cake was dissolved in each oil until visibly saturated. The sample was then blanketed with argon and sonicated for ten minutes. If the all the lutein appeared to go into solution, more was added and the process repeated. After the sample was completely saturated, the sample was transferred to a microcentrifuge tube and centrifuged at 14,000 rpm for 10 minutes. If the lutein was not pelleted by centrifugation, the sample was passed through a 0.22 μm filter unit to remove any suspended lutein. The clarified oil was then analyzed for lutein content using UV-VIS and HPLC.
# Lutein content was measured by using an analytical method as follows. Using an analytical balance, 10-20 mg of the sample is weighed into a 100 ml volumetric flask. The sample is diluted to the mark with HEAT (10:6:7:7 v:v:v:v hexane:ethanol:acetone:toluene), and the mixture is agitated or stirred until the sample is dissolved. One ml of this solution is transferred by pipette into a 100 ml amber volumetric flask and diluted to the mark with ethanol. The absorbance of the ethanol solution is measured at 446 nm on a UV/Vis spectrophotometer that has previously been zeroed against ethanol. For analysis by HPLC, 1 ml of the ethanol solution is transferred to an HPLC sample vial and dried using a nitrogen or argon gas stream. The dried sample is dissolved in 1 ml of HPLC mobile phase; sonication may be necessary to complete the solution. The HPLC instrument is set with the following parameters: the column is a 25 cm×4.6 mm nitrile bonded Spherisorb with 5 μm particles; 69 minute run time; flow rate of 1.00 ml/min; back pressure of 64 bar; injection volume of 50 μl; solvent of 75:25:0.35:0.1 (v:v:v:v) hexane/methylene chloride/methanol/diisopropylethylamine (all solvents are HPLC grade); detector is a visible lamp set to 446 nm; and temperature is 22° C. Fifty μl of the ethanol solution is injected into the HPLC column. The peaks at approximately 24, 26, 28.5, 32, 34, 40 and 42 minutes (corresponding to 13, 13′-di-cis-lutein, all-trans-lutein, all-trans-zeaxanthin, 9-cis-lutein, 9′-cis-lutein, 13 and 13′-cis -lutein and 9-cis-zeaxanthin) are integrated and used to determine the HPLC percent area for the lutein peak. The following equations were used for the essential oils: [formula] [formula] [formula]
# % Lutein=% Carotenoids*(% Total HPLC area of lutein/100)
compound,measurement,setting,value
"CC1=C[C@H](O)CC(C)(C)[C@H]1/C=C/C(C)=C/C=C/C(C)=C/C=C/C=C(C)/C=C/C=C(C)/C=C/C1=C(C)C[C@@H](O)CC1(C)C [Lutein, lutein]",trans lutein dropped,[1]; in bay oil,54%
same,lutein lost,[1]; in pure thyme oil,22%
same,trans lutein dropped,[1]; in pure/red thyme oil,approximately 47%
same,lutein lost,[1]; in tea tree oil,32%
same,reported solubility,[2]; in canola oil,0.029%
same,reported solubility,[2]; in corn oil,0.042%
same,reported solubility,[2]; in safflower oil,0.033%
same,reported solubility,[2]; in soybean oil,0.032%
same,reduction in age-related macular degeneration,[3],57%
same,% Lutein,"[4]; in Almond oil, NOW Foods 7660",0.030%
same,% Lutein,"[4]; in Aloe Vera LQX oil, Lebermuth 50-6010-11, lot Sample",0.028%
same,% Lutein,"[4]; in Anise, Spanish oil, Lebermuth 50-6015-11, lot Sample",0.223%
same,% Lutein,"[4]; in Apricot Kernel oil, NOW Foods 7665",0.035%
same,% Lutein,"[4]; in Bay oil, Lebermuth 50-6025-01, lot BA41-0484",1% and 1.001%
same,% Lutein,"[4]; in Bay oil, Lebermuth 50-6025-01, lot Sample",1.152%
same,% Lutein,"[4]; in Bay oil, Spectrum Botanical EO6",1.327%
same,% Lutein,"[4]; in Bergamot Mint oil, Lebermuth 50-6177-01, lot Sample",0.325%
same,% Lutein,"[4]; in Birch, Sweet Southern oil, Lebermuth 50-6035-02, lot Sample",0.236%
same,% Lutein,"[4]; in Cassia, redistilled oil, Lebermuth 50-6060-01, lot Sample",0.639%
same,% Lutein,"[4]; in Castor oil, NOW Foods 7675",0.171%
same,% Lutein,"[4]; in Cedarwood, Texas White oil, Lebermuth 50-6075-01, lot Sample",0.172%
same,% Lutein,"[4]; in Cornmint, Redistilled oil, Lebermuth 50-6100-01, lot CR43-0155",0.951%
same,% Lutein,"[4]; in Cornmint, Redistilled oil, Lebermuth 50-6100-01, lot Sample",1.163%
same,% Lutein,"[4]; in Eucalyptus, 80/85 oil, Lebermuth 50-6105-02, lot Sample",0.672%
same,% Lutein,"[4]; in Eugenol, Lebermuth 50-6110-01, lot Sample",0.517%
same,% Lutein,"[4]; in Frankincense, Olibanum oil, Lebermuth 50-5100-01, lot Sample",0.243%
same,% Lutein,"[4]; in Geranium (Rose), Egyptian oil, Lebermuth 50-6130-11, lot Sample",0.600%
same,% Lutein,"[4]; in Grapefruit, White oil, Lebermuth 50-6140-01, lot Sample",0.071%
same,% Lutein,"[4]; in Grapeseed oil, NOW Foods 7705",0.027%
same,% Lutein,"[4]; in Juniperberry oil, Lebermuth 50-6150-02, lot Sample",0.140%
same,% Lutein,"[4]; in Lemon, California oil, Lebermuth 50-6160-01, lot Sample",0.071%
same,% Lutein,"[4]; in Lime, distilled oil, Lebermuth 50-6170-01, lot Sample",0.213%
same,% Lutein,"[4]; in Nutmeg oil, Lebermuth 50-6190-01, lot Sample",0.122%
same,% Lutein,"[4]; in Peppermint oil, Spectrum Botanical EO64",1.358%
same,% Lutein,"[4]; in Peppermint, Yakima redistilled oil, Lebermuth 50-6225-21, lot PY43-0157",0.945%
same,% Lutein,"[4]; in Peppermint, Yakima redistilled oil, Lebermuth 50-6225-21, lot Sample",1.010%
same,% Lutein,"[4]; in Red Thyme Thymus satureioides oil, Spectrum Botanical, item unspecified",1.0% and 1.084%
same,% Lutein,"[4]; in Red Thyme Thymus vulgaris oil, Spectrum Botanical EO151",4.4% and 4.481%
same,% Lutein,"[4]; in Rosemary, Morrocan oil, Lebermuth 50-6230-03, lot Sample",0.637%
same,% Lutein,"[4]; in Sage, Clary oil, Lebermuth 50-6235-03, lot Sample",0.294%
same,% Lutein,"[4]; in Spearmint oil, Spectrum Botanical EO76",1.325%
same,% Lutein,"[4]; in Spearmint, redistilled oil, Lebermuth 50-6250-11, lot 39SR-0163",1.124%
same,% Lutein,"[4]; in Spearmint, redistilled oil, Lebermuth 50-6250-11, lot Sample",1.001%
same,% Lutein,"[4]; in Tagetes oil, Lebermuth 50-6261-01, lot Sample",0.268%
same,% Lutein,"[4]; in Tea Tree oil, Lebermuth 50-6270-01, lot TX43-0146",0.877%
same,% Lutein,"[4]; in Tea Tree oil, NOW Foods 7625",1.084%
same,% Lutein,"[4]; in Tea Tree oil, NOW Foods 7625, listed as lutein",about 1%
same,% Lutein,"[4]; in Tea Tree oil, Spectrum Botanical EO80",0.942%
same,% Lutein,"[4]; in Thyme oil, NOW Foods 7635",3.582%
same,% Lutein,"[4]; in Thyme oil, NOW Foods 7635, listed as lutein",2.5%
same,% Lutein,"[4]; in Thyme, Pure oil, Lebermuth 50-6275-04, lot TP41-0053",3.453%
same,% Lutein,"[4]; in Thyme, Red oil, Lebermuth 50-6275-02, lot TR43-0158",4.753%
same,% Lutein,"[4]; in Thyme, White oil, Lebermuth 50-6275-01, lot TLC11-T477",3.0% and 3.095%
same,% Lutein,"[4]; in White Thyme oil (from private source), item unspecified",5.068%
same,% Lutein,"[4]; in White Thyme oil, Spectrum Botanical EO82",4.9% and 4.903%
same,% Lutein,"[4]; in Wintergreen, Natural oil, Lebermuth 50-6285-11, lot Sample",0.226%
same,% Lutein,"[4]; in Wormwood, Natural oil, Lebermuth 50-6290-01, lot Sample",0.682%
same,lutein solubility,"[4]; in citrus oils (white grapefruit, lemon, lime)",0.071-0.21%
same,lutein solubility,"[4]; in grapeseed, almond and apricot kernel oils, NOW Foods",0.02-0.03%
same,lutein solubility,[4]; in spearmint oil (text comparison with beta-carotene),~1.0%
same,lutein solubility,"[4]; in thyme oils (red, white, pure)",3.0-4.7% and 3.5-5% and 3-5%
